The text below walks through data of patent US10908171B2, “Additive channels” (Emulate Inc., priority 2016, dated 2021).

This assay has as its system platelets. Kind of assay: Platelet activation quality control by p-selectin expression. In kind it is cell-based, human. To be noted: control blood. The protocol:
To test for a thrombic event, blood was collected from 4 donors, the as blood alone or blood treated with hu5C8 alone (240 μg/ml), sCD40L (10 ng/ml) alone or with combined hu5C8/sCD40L was incubated for 20 minutes at room temperature. Each sample was further incubated for 5 minutes with fluorescent labels for platelets and fibrinogen. As a standard quality control, the control blood was tested for platelet activation using p-selection expression. We confirmed that platelets in control blood were not activated but upon activation by ADP, over 90% of platelet was positive for p-selectin.

As to `Nc1ncnc2c1ncn2[C@@H]1O[C@H](COP(=O)(O)OP(=O)(O)O)[C@@H](O)[C@H]1O` [ADP], the “platelets positive for p-selectin upon activation” value is “over 90%”.
